Laboratory results taken from patent US8987167B2, “Low volatile amine salts of anionic pesticides” (BASF SE, priority 2009, dated 2015).
Read-outs that look alike come from different tables or passages of the source.

What was measured:
[1] = Volatility determined by TGA (thermal gravimetric analysis); type: physicochemical
Method: The volatility of the aqueous solutions of dicamba (480 g/l) or 2,4-D (250 g/l) as prepared in Example 1 was determined by analyzing the wt % loss per minute as calculated by the slope between 400 min and 1200 min of a TGA (thermal gravimetric analysis) analysis. The measurement conditions on a TA Instrument TGA Q50 were as follows: Pan type: Platinum; sample size 25 μl leveling uniformly on pan surface, balance purge flow 40 ml/min; sample purge flow 60 ml/min; temperature procedure: Start at 20° C., ramp 10° C./min to 100° C., then isothermal for 1200 min.
The volatility of the aqueous solutions of glyphosate salts as prepared in Example 6 was determined by analyzing the wt % loss per minute as described in Example 3.

[2] = system: soybean plants
[3] = 30% humidity; for Volatility after 2 weeks (wt % loss) / Volatility after 4 weeks (wt % loss): Petri dish, 480 g/l solution diluted 1:50, 50° C., forced air flow, loss of dicamba acid by HPLC
Method: A dicamba sample of the aqueous solutions of dicamba (480 g/l) as prepared in Example 1 (Table 1, entry 2) was diluted with distilled water in a ratio of 1:50. To help spreading of the samples uniformly on the surface of the plate, Silwet L-77 was added (0.1 wt %). A total of 300 μl of this diluted sample was applied per Petri dish (diameter 5 cm). The dishes were kept at an environment chamber (Barnstead Environ-Cab Lab-line 680A) with forced air flow (air vent out) up to one month at 50° C. and 30% humidity. Afterwards the plates were extracted with acetic acid/methanol and the pesticide quantified by HPLC (Columbus C18 column) to determine the volatile loss of dicamba acid.

[4] = pH 7
[5] = 2,4-D salts, 250 g/l, TGA, normed, dimethylamine salt = 100.0
[6] = 2,4-D salts, aqueous solution 250 g/l, TGA isothermal at 100° C., slope between 400 min and 1200 min
[7] = Dicamba salts, 480 g/l, TGA, normalized, dicamba acid = 100.0
[8] = Dicamba salts, aqueous solution 480 g/l, TGA isothermal at 100° C., slope between 400 min and 1200 min
[9] = soybean injury (epinasty and stunting) 14 days after 24 h vapour exposure to Petri dishes treated with 4480 g active ingredient per ha, normalized to 30% for the 2-(-aminoethoxy)ethanol salt
[10] = Glyphosate salts, aqueous solution 480 g/l, TGA

With CN(CCCN)CCCN.COc1c(Cl)ccc(Cl)c1C(=O)O the “Volatility (normalized)” value [1] was 0.5, the “Volatility (wt % loss per min)” value [1] was 0.0003 wt % loss per min and the “Injury (%)” value ([2]; in vivo) was 7%.
With CN(CCCN)CCCN.O=C(O)CNCP(=O)(O)O the “Volatility (wt % loss per min)” value [1] was 0.002 wt % loss per min.
In the case of NCCNCCO.O=C(O)COc1ccc(Cl)cc1Cl [2,4-D salt: Aminoethylethanolamine], the “Volatility (normed)” value [1, 5] is reported as 35.7 and the “Volatility (wt % loss per min)” value [1, 6] is reported as 0.002 wt % loss per min.
With NCCNCCN.O=C(O)COc1ccc(Cl)cc1Cl [2,4-D salt: Diethylenetriamine] the “Volatility (normed)” value [1, 5] was 13.7 and the “Volatility (wt % loss per min)” value [1, 6] was 0.0008 wt % loss per min.
For CNC.O=C(O)COc1ccc(Cl)cc1Cl [2,4-D salt: Dimethylamine, reference compound], the “Volatility (normed)” value [1] was 100.0 and the “Volatility (wt % loss per min)” value [1] was 0.006 wt % loss per min.
In the case of CN(C)CCCNCCCN(C)C.O=C(O)COc1ccc(Cl)cc1Cl [2,4-D salt: Jeffcat ® Z-130], the “Volatility (normed)” value [1, 5] is reported as 14.8 and the “Volatility (wt % loss per min)” value [1, 6] is reported as 0.0008 wt % loss per min.
In the case of COc1c(Cl)ccc(Cl)c1C(=O)O [Dicamba acid, dicamba, reference compound], the “Volatility (normalized)” value [1, 7] is reported as 100.0, the “Volatility (wt % loss per min)” value [1, 8] is reported as 0.060 wt % loss per min and the “Injury (%)” value [2, 9] is reported as 67%.
With COc1c(Cl)ccc(Cl)c1C(=O)O.NCCOCCO [Dicamba salt: 2-(-Aminoethoxy)ethanol, dicamba 2-(-Aminoethoxy)ethanol salt, reference compound] the “Volatility (normalized)” value [1, 7] was 5.4, the “Volatility (wt % loss per min)” value [1, 8] was 0.0032 wt % loss per min and the “Volatility after 2 weeks (wt % loss)” value [3] was 29.3 wt % loss. The “Volatility after 4 weeks (wt % loss)” value [3] was 57.0 wt % loss and the “Injury (%)” value [2, 9] was 30%.
With COc1c(Cl)ccc(Cl)c1C(=O)O.NCCNCCO [Dicamba salt: Aminoethylethanolamine, aminoethylethanolamine salt of dicamba] the “Volatility (normalized)” value [1, 7] was 3.1, the “Volatility (wt % loss per min)” value [1, 8] was 0.0018 wt % loss per min and the “volatility compared to commercial dicamba salt formulations (Petri dish)” value ([3]; 50° C., up to one month) was “reduced volatility compared to commercial dicamba salt formulations”. For the same molecule, the “Volatility after 2 weeks (wt % loss)” value [3] was 6.2 wt % loss, the “Volatility after 4 weeks (wt % loss)” value [3] was 20.6 wt % loss and the “Injury (%)” value [2, 9] was 5%.
For COc1c(Cl)ccc(Cl)c1C(=O)O.NCCN1CCNCC1 [Dicamba salt: Aminoethylpiperazine], the “Volatility (normalized)” value [1, 7] was 0.4, the “Volatility (wt % loss per min)” value [1, 8] was 0.0002 wt % loss per min and the “Injury (%)” value [2, 9] was 19%.
For COc1c(Cl)ccc(Cl)c1C(=O)O.NCCNCCN [Dicamba salt: Diethylenetriamine], the “Volatility (normalized)” value [1, 7] was 0.7, the “Volatility (wt % loss per min)” value [1, 8] was 0.0004 wt % loss per min and the “Injury (%)” value [2, 9] was 14%.
With CNC.COc1c(Cl)ccc(Cl)c1C(=O)O [Dicamba salt: Dimethylamine, dicamba dimethylamine salt, reference compound] the “Volatility (normalized)” value [1] was 17.8, the “Volatility (wt % loss per min)” value [1] was 0.011 wt % loss per min and the “Volatility after 2 weeks (wt % loss)” value [3] was 98.7 wt % loss. For the same molecule, the “Volatility after 4 weeks (wt % loss)” value [3] was 100 wt % loss and the “Injury (%)” value ([2]; in vivo) was 48%.
With CC1(C)CC(N)CC(C)(CN)C1.COc1c(Cl)ccc(Cl)c1C(=O)O [Dicamba salt: Isophorone diamine] the “Volatility (normalized)” value [1] was 0.4, the “Volatility (wt % loss per min)” value [1, 8] was 0.0002 wt % loss per min and the “Injury (%)” value [2, 9] was 19%.
For CN(C)CCCN(C)CCCN(C)C.COc1c(Cl)ccc(Cl)c1C(=O)O [Dicamba salt: Jeffcat ZR-40], the “Volatility (normalized)” value [1, 7] was 5.0 and the “Volatility (wt % loss per min)” value [1, 8] was 0.0030 wt % loss per min.
For CN(C)CCCNCCCN(C)C.COc1c(Cl)ccc(Cl)c1C(=O)O [Dicamba salt: Jeffcat ® Z-130], the “Volatility (normalized)” value [1, 7] was 2.9, the “Volatility (wt % loss per min)” value [1, 8] was 0.0017 wt % loss per min and the “Injury (%)” value [2, 9] was 5%.
For NCCN1CCNCC1.O=C(O)CNCP(=O)(O)O [Glyphosate salt: Aminoethylpiperazine], the “Volatility (wt % loss per min)” value [1, 10] was 0.002 wt % loss per min.
In the case of NCCNCCN.O=C(O)CNCP(=O)(O)O [Glyphosate salt: Diethylenetriamine, glyphosate diethylenetriamine salt, reference compound], the “Volatility (wt % loss per min)” value [1, 10] is reported as 0.002 wt % loss per min.
In the case of CC1(C)CC(N)CC(C)(CN)C1.O=C(O)CNCP(=O)(O)O (stereo not drawn) [Glyphosate salt: Isophorone diamine], the “Volatility (wt % loss per min)” value [1, 10] is reported as 0.002 wt % loss per min.
For COc1c(Cl)ccc(Cl)c1C(=O)O.NCCCN1CCOCC1 [aminopropylmorpholine (APM) salt of dicamba, reference compound], the “Volatility expected for a concentration of 480 g/l” value ([1]; dicamba salt, 480 g/l (solution could not be prepared), compared with 0.0021 wt % loss per min at 300 g/l) was “expected to be higher”, the “Volatility (wt % loss per min)” value ([1]; dicamba salt, aqueous solution 300 g/l, TGA) was 0.0021 wt % loss per min and the solubility in water [4] was ≤ 300 mg/mL.
